Values of other authors as cited in patent US10253031B2, “Stable pemetrexed arginine salt and compositions comprising it” (SYNTHON B.V., priority 2013, dated 2019).
Where a name gives a salt, the structure may show the parent alone.

Conditions: background statement

Solubility in water | Compound
soluble in water | Nc1nc2[nH]cc(CCc3ccc(C(=O)N[C@@H](CCC(=O)O)C(=O)O)cc3)c2c(=O)[nH]1 [Disodium salt of pemetrexed]
sparingly soluble | Nc1nc2[nH]cc(CCc3ccc(C(=O)N[C@@H](CCC(=O)O)C(=O)O)cc3)c2c(=O)[nH]1 [pemetrexed diacid, N-[4-[2-(2-amino-4,7-dihydro-4-oxo-1H-pyrrolo [2,3-d]pyrimidin-5-yl)ethyl]benzoyl]-L-glutamic acid]
